Like-named read-outs stand apart in the source and are kept apart here.
Assays:
[1] = tested on: nonsensitized rats challenged with a natural mixture of HDM allergens; conditions: i.t. aerosol typically 60-360 min prior to allergen challenge, unsensitised BN rats
[2] = biological target: T1, human recombinant caspase 3 (Homo sapiens, UniProt P42574); experiment: Protease counter-screening: Caspase 3; type: biochemical
T1 construct: host or cells: E. coli
Description: (§1) Appendix 7. Protease Counter -Screening
(§2) Protease counter-screeni ng was performed using the methods described below. Initial screening was conducted in duplicate using a single test substance concentration of 10 µ M .
(§3) Additional assays were conducted in replicate for selected pairin gs of test s ubstance and enz yme in order to enable the determination of IC50 values using conventional procedures.
(§4) Determination of K i was made using the Batch K i program (Biokin Ltd, Pullman, WA) to derive values from the Morrison equation: […]
(§5) Where [E ] is the active enz yme concentration, Kiapp is the apparent inhibition const ant, v 0 is the control velocit y in the absence of inhibitors, vb is the background velocity, v is the initial reaction velocit y in the presence of inhibitor, and I is the inhibitor concentration.Thence:
Where [S ] is the substrate concentration and KM is the Michealis constant. […]
by addition of 50 µM Ac-DEVD-AMC for another 60 min incubation period. The amount of AMC formed was determined fluorimetricall y (excitation 360 nm/emission 465 nm). […]
by addition of 25 µM Ac-LEH D-A FC for another 60 min incubation period. The amount of amino-4- trifluorometh ylcoumarin (AFC) formed determined fluorimetrically (400nm/ 510nm).
Cathepsin C: Cathepsin C from bovine spleen was used as the source of enz yme. […] T he amount of AMC product formed was read spectrofluorimetrically

Human recombinant MMP-9 = biological target: T2, Human recombinant MMP-9 (Homo sapiens, UniProt P14780); experiment: Protease counter-screening: MMP-9; type: biochemical
T2 construct: host or cells: mammalian cells
T2 sequence (P14780 107-707 limits assumed): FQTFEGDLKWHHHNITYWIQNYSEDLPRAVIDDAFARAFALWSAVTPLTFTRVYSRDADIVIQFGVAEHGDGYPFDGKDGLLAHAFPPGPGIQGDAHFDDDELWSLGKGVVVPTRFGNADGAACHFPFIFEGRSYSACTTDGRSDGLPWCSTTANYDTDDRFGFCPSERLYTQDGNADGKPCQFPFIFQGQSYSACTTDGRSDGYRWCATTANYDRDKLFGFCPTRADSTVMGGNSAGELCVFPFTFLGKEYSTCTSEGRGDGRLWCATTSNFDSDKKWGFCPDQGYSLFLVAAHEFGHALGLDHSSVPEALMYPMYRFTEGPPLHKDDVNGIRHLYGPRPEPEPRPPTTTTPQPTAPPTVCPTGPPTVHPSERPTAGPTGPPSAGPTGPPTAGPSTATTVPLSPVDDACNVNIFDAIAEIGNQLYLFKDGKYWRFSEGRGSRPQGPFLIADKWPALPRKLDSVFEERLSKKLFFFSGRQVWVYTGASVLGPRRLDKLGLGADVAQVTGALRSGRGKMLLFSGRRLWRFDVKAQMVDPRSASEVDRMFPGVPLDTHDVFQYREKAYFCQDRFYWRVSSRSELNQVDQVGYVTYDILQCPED
Description: as §1, §2, §3, §4
MMP-9: Human recombinant MMP-9 proenz yme ex pressed in mammalian cells was activated with APMA for 60 min at 37 °C. […] The amount of MCA-P LG formed was read spectrofluorimetricall y at 340 nm/400 nm.
ADAM-17/TACE: Human recombinant ADAM-17 expressed in Sf21 insect cells was used as enz yme sour ce. […] T he amount of MCA-P LAQA formed w as read spectro fluorimetricall y at 340 nm/400 nm.
Angiotensin converting enzyme: Test compound or vehicle was pre- incubated in modified HEPES buffer pH 7.5 for 15 min at 25 °C with 31 mU/mL angiotensin converting enz yme from rabbit lung. […] The amount of substrate remaining was read spectrophotometricall y at 340 nm and used to deri ve the extent of reaction and its inhibition. […]

Human cathepsin E = biological target: T3, Human cathepsin E (Homo sapiens, UniProt P14091); experiment: Protease counter-screening: Cathepsin E; type: biochemical
T3 construct: host or cells: NS0 murine myeloma cell line
T3 sequence (P14091 54-396): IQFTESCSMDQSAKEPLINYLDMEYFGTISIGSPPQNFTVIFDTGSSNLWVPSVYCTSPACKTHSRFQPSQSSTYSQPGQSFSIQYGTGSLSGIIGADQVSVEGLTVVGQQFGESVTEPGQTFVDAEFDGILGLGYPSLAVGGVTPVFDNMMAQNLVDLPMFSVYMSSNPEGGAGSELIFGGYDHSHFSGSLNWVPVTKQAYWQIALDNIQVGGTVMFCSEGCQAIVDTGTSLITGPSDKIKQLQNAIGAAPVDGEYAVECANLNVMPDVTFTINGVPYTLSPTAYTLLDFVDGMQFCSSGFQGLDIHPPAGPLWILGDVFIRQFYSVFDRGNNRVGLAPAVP
Description: as §1, §2, §3, §4, §5
Where [S ] is the substrate concentration and KM is the Michealis constant.
Caspase 1: Activity against human recombinant caspase 1 expressed in E. coli was tested using Ac-YVAD- AMC as the substrate. Test compound or vehicle was pre- incubated with 600 […]
Cathep sin D: Tests were performed using enz ym e purified from human li ver. Test compound or vehicle was pre- incubated with 190 mU/mL enz yme in modified acetate buffer pH 4.0 for 15 min at 37 °C. […]
The amount of MCA-P LG formed was measured spectrofluorimetricall y at 340 nm/400 nm. […]

human liver Cat B = human liver Cat B (Homo sapiens, UniProt P07858); experiment: Cathepsin B inhibition assay
Description: Inhibition of Cat B was measured as described with modifications.[25] […] Progress curves were followed at 30 °C by detection of fluorescence at 320/420 nm (excitation/emission).
In all cases, for reactions involving inhibitors, the amount of reaction buffer was adjusted to 60 μL, the inhibitor added as a 10 μL aliquot, and incubated for 20 min with the enzyme prior to reaction start.

T1 sequence (P42574 29-175 limits assumed): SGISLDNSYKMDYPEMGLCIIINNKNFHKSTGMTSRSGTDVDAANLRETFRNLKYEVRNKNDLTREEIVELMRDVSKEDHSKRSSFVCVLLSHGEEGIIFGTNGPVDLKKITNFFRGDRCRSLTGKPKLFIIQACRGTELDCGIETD
T1 sequence (P42574 176-277 limits assumed): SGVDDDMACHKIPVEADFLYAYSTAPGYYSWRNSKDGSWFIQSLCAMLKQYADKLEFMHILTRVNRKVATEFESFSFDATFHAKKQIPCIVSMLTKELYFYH

CC(C)[C@H](NC(=O)[C@H](C)NC(=O)[C@@H](NC(=O)c1ccccc1)C(C)(C)C)C(=O)C(=O)NCc1ccccc1 [Compound 38, N-{(S)-1-[(S)-1-((S)-1-Benzylaminooxalyl-2-methyl-propylcarbamoyl)-ethylcarbamoyl]-2,2-dimethyl-propyl}-benzamide]
duration of protection: trend of inhibition of eosinophil recruitment with increasing pre-treatment interval [1]: rise to well-maintained
inhibition at 10 µM [2]: 1%
inhibition at 10 µM (Human recombinant MMP-9): 5%
inhibition at 10 µM (Human cathepsin E): 23%
IC50 (human liver Cat B; read-out: Cat B IC50, mean ± SE): 512 ± 59 nM
IC50 (human liver Cat B; read-out: Cathepsin B IC50, Table S1 counter-screening): 510 nM

— PMC4257840 (Journal of Medicinal Chemistry, 2014)
